In ChEMBL document CHEMBL3763014, “Alkaloids from Oxytropis ochrocephala and antiproliferative activity of sophoridine derivatives against cancer cell lines” (Bioorg Med Chem Lett, 2016) one finds IC50 data, which are given here for 17 molecules.

What all share (format): functional, cell-based
One assay relates to A549. The assay can be described thus: Antiproliferative activity against human A549 cells after 3 days by SRB assay. As to conditions: A549, 72 h. Background: The SRB assay estimates cell density from bound dye.
The subject of a further assay is KB. The assay can be described thus: Antiproliferative activity against human KB cells after 3 days by SRB assay. As to conditions: 72 h.
Assay [1] is described as follows: Antiproliferative activity against human KBVIN cells after 3 days by SRB assay. To be noted: 72 h.
The test system of another assay is MDA-MB-231. The assay can be described thus: Antiproliferative activity against human MDA-MB-231 cells after 3 days by SRB assay. As to conditions: MDA-MB-231, 72 h.
The next assay has as its system MCF7. The assay can be described thus: Antiproliferative activity against human MCF7 cells after 3 days by SRB assay. As to conditions: MCF7, 72 h.

A value given as a limit tells only on which side of the number the result lay.

As a reminder, the IC50 is the concentration needed to halve the response being measured. On to `O=c1cccc2n1C[C@@H]1CCCN3CCC[C@H]2[C@H]13`, for which the concentration for half-maximal inhibition (IC50) (in the assay with A549; with KB; in assay [1]; in the assay on MDA-MB-231) was over 40 µM throughout.
For the molecule `O=C1CCC[C@@H]2[C@@H]3C[C@@H](CN12)[C@@H]1CCCCN1C3`, the concentration for half-maximal inhibition (IC50) (with A549; in the assay on KB; in assay [1]; with MDA-MB-231) was over 40 µM in each case.
For `COc1ccc(/C=C2\CC[C@@H]3[C@H]4CCCN5CCC[C@H](CN3C2=O)[C@@H]45)c(C)c1`, the half-inhibitory concentration (IC50) was 74 µM in the assay on A549; 74 µM with KB; over 80 µM in assay [1]; 67 µM with MDA-MB-231; over 80 µM with MCF7.
As to `COc1cccc(OC)c1/C=C1\CC[C@@H]2[C@H]3CCCN4CCC[C@H](CN2C1=O)[C@@H]34`, the IC50 (in the assay with A549; in the assay with KB; in assay [1]; with MDA-MB-231) was over 40 µM in each case.
As for `O[C@@H]1[C@H]2[C@H](O)CCCN2C[C@@H]1O`, the IC50 (with A549; with KB; in assay [1]; in the assay with MDA-MB-231) was over 40 µM each time.
With `COc1cccc(/C=C2\CC[C@@H]3[C@H]4CCCN5CCC[C@H](CN3C2=O)[C@@H]45)c1OC`, the IC50 was over 80 µM with A549; 71 µM with KB; over 80 µM in assay [1]; 68 µM in the assay with MDA-MB-231; over 80 µM with MCF7.
In the case of `O=C1CCC[C@@H]2[C@H]3CCCN4CCC[C@H](CN12)[C@H]34`, the IC50 (in the assay with A549; with KB; in assay [1]; with MDA-MB-231) was over 40 µM throughout.
Consider `O=C1/C(=C/c2ccc3c(c2)OCO3)CC[C@@H]2[C@H]3CCCN4CCC[C@H](CN12)[C@@H]34`, for which the IC50 (in the assay with A549; with KB; in assay [1]; in the assay on MDA-MB-231) was over 40 µM each time.
For `CCOc1cc(/C=C2\CC[C@@H]3[C@H]4CCCN5CCC[C@H](CN3C2=O)[C@@H]45)ccc1OCOC`, the IC50 (with A549; with KB; in assay [1]; with MDA-MB-231) was over 40 µM each time.
For the molecule `CCOc1cc(/C=C2\CC[C@@H]3[C@H]4CCCN5CCC[C@H](CN3C2=O)[C@@H]45)ccc1OCc1ccccc1`, the IC50 in the assay with A549 stood at 17.6 µM; in the assay on KB, 20.7 µM; in assay [1], 21.6 µM; in the assay on MDA-MB-231 it was 21.9 µM; in the assay on MCF7, 20.5 µM.
On to `COc1cc(/C=C2\CC[C@@H]3[C@H]4CCCN5CCC[C@H](CN3C2=O)[C@@H]45)ccc1C`, for which the IC50 in the assay with A549 came out at 42 µM; in the assay with KB it was 58 µM; in assay [1], 72 µM; in the assay on MDA-MB-231, 45 µM; in the assay on MCF7 it was 54 µM.
As to `CN(C)c1ccc(/C=C2\CC[C@@H]3[C@H]4CCCN5CCC[C@H](CN3C2=O)[C@@H]45)cc1`, the half-maximal inhibitory concentration (IC50) (in the assay with A549; in the assay with KB; in assay [1]; in the assay with MDA-MB-231) was over 40 µM throughout.
Regarding `O=C1CCCC2=C3CCCN4CCC[C@@H](CN12)[C@@H]34`, the IC50 (in the assay with A549; in the assay with KB; in assay [1]; in the assay with MDA-MB-231) was over 40 µM each time.
`O=C1CCC[C@@H]2[C@H]3CCCN4CCC[C@@H](CN12)[C@@H]34` [MATRINE]: the IC50 (in the assay with A549; in the assay with KB; in assay [1]; in the assay with MDA-MB-231) was over 40 µM in each case.
As for `CC(=O)O[C@H]1C(=O)[C@@]2(C)[C@H]([C@H](OC(=O)c3ccccc3)[C@]3(O)C[C@H](OC(=O)[C@H](O)[C@@H](NC(=O)c4ccccc4)c4ccccc4)C(C)=C1C3(C)C)[C@]1(OC(C)=O)CO[C@@H]1C[C@@H]2O` [PACLITAXEL], the IC50 in the assay with A549 was 3e-05 µM; with KB it was 4e-05 µM; in assay [1], 2.6 µM; in the assay on MDA-MB-231, 0.018 µM.
With `O=C1C=CC[C@@H]2[C@H]3CCCN4CCC[C@@H](CN12)[C@@H]34` [SOPHOCARPINE], the 50% inhibitory concentration (IC50) (with A549; in the assay on KB; in assay [1]; with MDA-MB-231) was over 40 µM throughout.
On to `O=C1CCC[C@@H]2[C@H]3CCCN4CCC[C@H](CN12)[C@@H]34` [SOPHORIDINE], for which the half-inhibitory concentration (IC50) (with A549; in the assay with KB; in assay [1]; in the assay with MDA-MB-231; in the assay with MCF7) was over 80 µM throughout.
